This note sets out measurements from BindingDB's records for doi:10.1021/jm0004906 (Glaxosmithkline, 2001).

In general, IC50 refers to the concentration that gives 50% inhibition. Low readings indicate inhibition by little substance, high ones a need for much substance.

The target in one experiment is T1, Gag-Pol polyprotein [588-1027]/[588-1147] (Human immunodeficiency virus 1, UniProt P04585).
T1 construct: 588-1027; 588-1147
Nature of the experiment: HIV-1 RT Assay.
Conditions: not given
The text has this: The IC50 of reverse transcriptase is the concentration that inhibits 50% of recombinant HIV-1 RT RNA-directed DNA polymerase activity in vitro.
The molecule `N#Cc1c(N)cccc1[S+]([O-])c1ccccc1Br` (stereo not given) [2-amino-6-[(2-bromobenzene)sulfinyl]benzonitrile] showed an IC50 above 19 µM. `Cc1ccccc1[S+]([O-])c1cccc(N)c1C#N` (stereo not given) [2-amino-6-[(2-methylbenzene)sulfinyl]benzonitrile] came in with an IC50 above 21 µM. `N#Cc1cccc([S+]([O-])c2cccc(N)c2C#N)c1` (stereo not given) [2-amino-6-[(3-cyanobenzene)sulfinyl]benzonitrile] had an IC50 above 15 µM.

The molecule `N#Cc1c(N)cccc1[S+]([O-])c1ccc(Br)cc1` (stereo not given) [2-amino-6-[(4-bromobenzene)sulfinyl]benzonitrile] showed an IC50 above 21 µM.

Consider `N#Cc1c(N)cccc1S(=O)(=O)c1ccc(Br)cc1` [2-amino-6-[(4-bromobenzene)sulfonyl]benzonitrile], for which the IC50 is above 14 µM. Turning to `N#Cc1ccc([S+]([O-])c2cccc(N)c2C#N)cc1` (stereo not given) [2-amino-6-[(4-cyanobenzene)sulfinyl]benzonitrile], the half-inhibitory concentration (IC50) was above 23 µM. On to `N#Cc1ccc(S(=O)(=O)c2cccc(N)c2C#N)cc1` [2-amino-6-[(4-cyanobenzene)sulfonyl]benzonitrile], for which the IC50 is above 18 µM. The molecule `COc1ccc([S+]([O-])c2cccc(N)c2C#N)cc1` (stereo not given) [2-amino-6-[(4-methoxybenzene)sulfinyl]benzonitrile] showed an IC50 above 20 µM.

Take `Cc1ccc([S+]([O-])c2cccc(N)c2C#N)cc1` (stereo not given) [2-amino-6-[(4-methylbenzene)sulfinyl]benzonitrile]: the IC50 is above 21 µM.

As to `N#Cc1c(N)cccc1[S+]([O-])c1cccc(C(F)(F)F)c1` (stereo not given) [2-amino-6-{[3-(trifluoromethyl)benzene]sulfinyl}benzonitrile], the IC50 is above 22 µM.

The experiment is the same for the next values; noted with them: pH 8.
`N#Cc1c(N)cccc1Sc1ccccc1Br` [2-amino-6-[(2-bromophenyl)sulfanyl]benzonitrile] gave an IC50 above 21 µM.

As for `N#Cc1c(N)cccc1Sc1cccc(N)c1` [2-amino-6-[(3-aminophenyl)sulfanyl]benzonitrile], the half-maximal inhibitory concentration (IC50) was above 23 µM.

In the case of `N#Cc1ccc(Sc2cccc(N)c2C#N)cc1` [2-amino-6-[(4-cyanophenyl)sulfanyl]benzonitrile], the IC50 was above 19 µM. With `COc1ccc(Sc2cccc(N)c2C#N)cc1` [2-amino-6-[(4-methoxyphenyl)sulfanyl]benzonitrile], the IC50 was above 17 µM.

Regarding `O=[N+]([O-])c1ccccc1Sc1ccccc1[N+](=O)[O-]` [Bisnitrophenylsulfide], the IC50 is above 20 µM.
